These results are taken from PMC9082524, “Aromatic heterocycle galectin-1 interactions for selective single-digit nM affinity ligands” (RSC Advances, 2018).

Where two headings read alike, the source gives them in different places.

For data set [1], the target named is T1, galectin-3 (Homo sapiens, UniProt P17931). Put plainly: Competitive fluorescence polarization, galectin-3 (performed as described in ref 13). (Fluorescence polarisation rises when a labelled molecule tumbles more slowly, as on binding a larger partner.)
Data set [2] has as its target T2, Human galectin-1 (Homo sapiens, UniProt P09382). Put plainly: Competitive fluorescence polarization, galectin-1 (performed as described in ref 13). As to conditions: for Galectin-3/galectin-1: ratio of Kd values, Table 1 (monogalactosides).
Data set [3] deals with T2, Human galectin-1. Put plainly: Competitive fluorescence polarization, galectin-1 with high-affinity fluorescent probe 25. As to conditions: for Kd / Kd Galectin-1: galectin-1 50 nM, probe 25 1 nM, 100 nM BSA, rt, average ± SEM; for Galectin-3/galectin-1: ratio of Kd values, Table 2 (thiodigalactosides), galectin-1 selectivity over galectin-3. In kind it is binding. Also noted: made in house.

Data set [4] addresses T1, galectin-3. Put plainly: Competitive fluorescence polarization, galectin-3 with improved-affinity probe (as described in ref 15). The data set is classed as binding. Also noted: made in house. As to conditions: average ± SEM.
In data set [5] the test system is MCF-7.
Data set [6] relates to JIMT-1.
Data set [7] concerns MCF-10A.
Data set [8] deals with JIMT-1. In words: MTT cytotoxicity assay, JIMT-1. As to conditions: JIMT-1 tumor cell line, 72 h, 0.04 μM to 40 μM. Background: Tetrazolium dyes change colour on reduction, which living cells bring about.
In data set [9] the test system is MCF-10A. In words: MTT cytotoxicity assay, MCF-10A. As to conditions: MCF-10A normal cell line, 72 h, 0.04 μM to 40 μM.
The test system of data set [10] is MCF-7. Put plainly: MTT cytotoxicity assay, MCF-7. The conditions noted are these: MCF-7 tumor cell line, 72 h, 0.04 μM to 40 μM.

T1 sequence (P17931 whole entry): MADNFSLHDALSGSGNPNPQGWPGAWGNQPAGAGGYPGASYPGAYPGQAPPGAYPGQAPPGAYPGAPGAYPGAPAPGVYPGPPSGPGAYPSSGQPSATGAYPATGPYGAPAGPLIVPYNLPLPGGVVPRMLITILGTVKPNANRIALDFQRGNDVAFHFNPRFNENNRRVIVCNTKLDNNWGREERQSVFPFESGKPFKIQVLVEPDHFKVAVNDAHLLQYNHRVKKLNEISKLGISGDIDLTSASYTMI
T2 sequence (P09382 whole entry): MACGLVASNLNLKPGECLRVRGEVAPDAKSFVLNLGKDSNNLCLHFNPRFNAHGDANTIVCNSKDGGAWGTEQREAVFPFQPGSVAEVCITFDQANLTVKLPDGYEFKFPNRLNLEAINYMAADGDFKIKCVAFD

For the compound `O=C(O)CS[C@@H]1O[C@H](CO)[C@H](O)[C@H](O)[C@H]1O` [compound 17, reference compound], the Kd in data set [1] was 1800 ± 100 µM. In addition, in [2], binding was characterised by a dissociation constant (Kd) of 430 ± 40 µM and the Galectin-3/galectin-1 was 4.2.

Regarding `OC[C@H]1O[C@@H](S[C@@H]2O[C@H](CO)[C@H](O)[C@H](n3cc(-c4nccs4)nn3)[C@H]2O)[C@H](O)[C@@H](n2cc(-c3ccc(F)c(F)c3)nn2)[C@H]1O` [compound 23, 3,3′-Dideoxy-3′-[4-(3,4-difluorophenyl)-1H-1,2,3-triazol-1-yl]-3-[4-(thiazol-2-yl)-1H-1,2,3-triazol-1-yl]-1,1′-sulfanediyl-di-β-D-galactopyranoside], in data set [3], binding was put at a Kd of 0.013 ± 0.001 µM and the Galectin-3/galectin-1 was 0.14. Also, the Kd in data set [4] was found to be 0.0018 ± 0.0002 µM.

For the compound `Cc1ccc(S[C@@H]2O[C@H](CO)[C@H](O)[C@H](n3cc(-c4c[nH]cn4)nn3)[C@H]2O)cc1` [compound 9, p-Methylphenyl 3-deoxy-3-[4-(1H-imidazol-4-yl)-1H-1,2,3-triazol-1-yl]-1-thio-β-D-galactopyranoside], in data set [2], the Kd came out at 140 ± 7 µM and the Galectin-3/galectin-1 was determined as 2.4.

On to `Cc1ccc(S[C@@H]2O[C@H](CO)[C@H](O)[C@H](n3cc(-c4ccsc4)nn3)[C@H]2O)cc1` [compound 7, p-Methylphenyl 3-deoxy-3-[4-(thien-3-yl)-1H-1,2,3-triazol-1-yl]-1-thio-β-D-galactopyranoside], for which the Cytotoxicity result in data set [5], in data set [6] and in data set [7] was “non-cytotoxic” each time. Besides, binding in data set [2] was characterised by a dissociation constant (Kd) of 47 ± 2 µM.

Consider `O=C(O)CS[C@@H]1O[C@H](CO)[C@H](O)[C@H](n2cc(-c3ccsc3)nn2)[C@H]1O` [compound 12, Carboxymethyl 3-deoxy-3-[4-(thien-3-yl)-1H-1,2,3-triazol-1-yl]-1-thio-β-D-galactopyranoside], for which the Kd in data set [1] came out at 200 ± 7 µM; in data set [2], 58 ± 4 µM. Besides, the Cytotoxicity result in [8], in data set [9] and in [10] was “non-cytotoxic” in each case. For the same compound, the Galectin-3/galectin-1 in [2] is given as 3.4.

In turn, `OC[C@H]1O[C@@H](S[C@@H]2O[C@H](CO)[C@H](O)[C@H](n3cc(-c4nccs4)nn3)[C@H]2O)[C@H](O)[C@@H](n2cc(-c3nccs3)nn2)[C@H]1O` [compound 19, 1,1′-Sulfanediyl-bis-{3-deoxy-3-[4-(thiazol-2-yl)-1H-1,2,3-triazol-1-yl]-β-D-galactopyranoside}] displayed a Kd in [3] of 0.0084 ± 0.001 µM. Moreover, in data set [3], the “Kd Galectin-1” value is “single-digit”. The Cytotoxicity result in [8], in data set [9] and in data set [10] was “non-cytotoxic” in each case.

For `OC[C@H]1O[C@@H](S[C@@H]2O[C@H](CO)[C@H](O)[C@H](n3cc(-c4ccsc4)nn3)[C@H]2O)[C@H](O)[C@@H](n2cc(-c3ccsc3)nn2)[C@H]1O` [compound 1], binding in data set [3] was put at a Kd of 0.0061 ± 0.001 µM. Moreover, the “Kd Galectin-1” value in [3] is “single-digit”. For the same compound, the Cytotoxicity entry in data set [8], in [9] and in [10] was “non-cytotoxic” in each case.

As to `O=C(O)CS[C@@H]1O[C@H](CO)[C@H](O)[C@H](n2cc(-c3cncs3)nn2)[C@H]1O` [compound 15, Carboxymethyl 3-deoxy-3-[4-(thiazol-5-yl)-1H-1,2,3-triazol-1-yl]-1-thio-β-D-galactopyranoside], the affinity in [1], expressed as Kd, was 430 ± 20 µM. Further, in data set [2], the affinity, expressed as Kd, was 180 ± 9 µM and the Galectin-3/galectin-1 turned out to be 2.4.

`Cc1ccc(S[C@@H]2O[C@H](CO)[C@H](O)[C@H](n3cc(C4CCCC4)nn3)[C@H]2O)cc1` [compound 4, p-Methylphenyl 3-deoxy-3-(4-cyclopentyl-1H-1,2,3-triazol-1-yl)-1-thio-β-D-galactopyranoside]: in data set [2], the Kd is 370 ± 30 µM and the Galectin-3/galectin-1 was found to be 2.6.

`OC[C@H]1O[C@@H](S[C@@H]2O[C@H](CO)[C@H](O)[C@H](n3cc(-c4nccs4)nn3)[C@H]2O)[C@H](O)[C@@H](n2cc(-c3ccsc3)nn2)[C@H]1O` [compound 22, 3,3′-Dideoxy-3-[4-(thiazol-2-yl)-1H-1,2,3-triazol-1-yl]-3′-[4-(thien-3-yl)-1H-1,2,3-triazol-1-yl]-1,1′-sulfanediyl-di-β-D-galactopyranoside]: in data set [3], the “Increased galectin-1 selectivity compared to corresponding monogalactoside” value was found to be 2 fold, the Kd turned out to be 0.012 ± 0.001 µM and the Galectin-3/galectin-1 worked out at 5.1. This compound also returned an equilibrium dissociation constant (Kd) in data set [4] of 0.061 ± 0.003 µM.

Consider `O=C(O)CS[C@@H]1O[C@H](CO)[C@H](O)[C@H](n2cc(-c3nccs3)nn2)[C@H]1O` [compound 13, Carboxymethyl 3-deoxy-3-[4-(thiazol-2-yl)-1H-1,2,3-triazol-1-yl]-1-thio-β-D-galactopyranoside], for which the Kd in data set [1] came out at 280 ± 7 µM; in data set [2], 43 ± 2 µM. Also, the Cytotoxicity result in data set [8], in data set [9] and in data set [10] was “non-cytotoxic” in each case.

As for `Cc1ccc(S[C@@H]2O[C@H](CO)[C@H](O)[C@H](n3cc(-c4ccoc4)nn3)[C@H]2O)cc1` [compound 5, p-Methylphenyl 3-deoxy-3-[4-(furan-3-yl)-1H-1,2,3-triazol-1-yl]-1-thio-β-d-galactopyranoside], in [2], the Kd was found to be 120 ± 7 µM and the Galectin-3/galectin-1 is recorded as 2.1.

With `Cc1ccc(S[C@@H]2O[C@H](CO)[C@H](O)[C@H](O)[C@H]2O)cc1` [compound 16, reference compound], the Galectin-3/galectin-1 in [2] was 0.2.

In the case of `Cc1ccc(S[C@@H]2O[C@H](CO)[C@H](O)[C@H](n3cc(-c4cccs4)nn3)[C@H]2O)cc1` [compound 6, p-Methylphenyl 3-deoxy-3-[4-(thien-2-yl)-1H-1,2,3-triazol-1-yl]-1-thio-β-D-galactopyranoside], the Cytotoxicity result in data set [5], in data set [6] and in data set [7] was “non-cytotoxic” each time. In data set [2], this compound returned a Kd of 61 ± 4 µM.

Consider `O=C(O)CS[C@@H]1O[C@H](CO)[C@H](O)[C@H](n2cc(-c3cscn3)nn2)[C@H]1O` [compound 14, Carboxymethyl 3-deoxy-3-[4-(thiazol-4-yl)-1H-1,2,3-triazol-1-yl]-1-thio-β-D-galactopyranoside], for which the Kd in [1] was 540 ± 30 µM; in data set [2], 62 ± 2 µM. Moreover, the Cytotoxicity result in data set [8], in [9] and in [10] was “non-cytotoxic” throughout. Moreover, the Galectin-3/galectin-1 in [2] is given as 8.7.

Take `OC[C@H]1O[C@@H](S[C@@H]2O[C@H](CO)[C@H](O)[C@H](n3cc(-c4ncc[nH]4)nn3)[C@H]2O)[C@H](O)[C@@H](n2cc(-c3ncc[nH]3)nn2)[C@H]1O` [compound 20, 1,1′-Sulfanediyl-bis-{3-deoxy-3-[4-(1H-imidazol-2-yl)-1H-1,2,3-triazol-1-yl]-β-D-galactopyranoside}]: in data set [3], the “Increased galectin-1 selectivity compared to corresponding monogalactoside” value was 2 fold, the “Lower affinity for galectin-1 than thiophene 1” value amounted to 4 fold, the Kd worked out at 0.025 ± 0.002 µM and the Galectin-3/galectin-1 is reported as 7.2. For the same compound, the affinity in [4], expressed as Kd, was 0.18 ± 0.01 µM.

Turning to `Cc1ccc(S[C@@H]2O[C@H](CO)[C@H](O)[C@H](n3cc(-c4ncc[nH]4)nn3)[C@H]2O)cc1` [compound 8, p-Methylphenyl 3-deoxy-3-[4-(1H-imidazol-2-yl)-1H-1,2,3-triazol-1-yl]-1-thio-β-D-galactopyranoside], in data set [2], the affinity, expressed as Kd, was 47 ± 3 µM and the Galectin-3/galectin-1 is reported as 4.7.

The Kd is the free concentration of one partner at which half of the binding sites on the other are occupied at equilibrium, for simple one-to-one binding. A lower Kd goes with a tighter complex.
